Test results from US20090155387A1, “STABLE PHARMACEUTICAL COMPOSITION COMPRISING BETA-LACTAM ANTIBIOTIC AND ION-CHELATING AGENT” (priority 2006, published 2009).

Test: Amounts of β-lactam antibiotic, β-lactamase inhibitor and aminoglycoside antibiotic in solution over time (reverse-phase LC/HPLC)
Format: physicochemical
How it was run: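 β-Lactam antibiotic and β-lactamase inhibitor quantified by C18 reverse-phase LC with UV-VIS detection; aminoglycoside by reverse-phase HPLC with evaporative light-scattering detection. Peak areas taken relative to an external standard, with each component at each time point given as a percentage of its initial amount.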

CC1(C)[C@H](C(=O)O)N2C(=O)C[C@H]2S1(=O)=O [Sulbactam sodium]
amount (percentage of initial amount) (in Example 4 solution (no EDTA), pH 6.75, room temperature, 0 h): 101.4% | amount (percentage of initial amount) (in Example 4 solution (no EDTA), pH 6.75, room temperature, 1 h): 101.4% | amount (percentage of initial amount) (in Example 4 solution (no EDTA), pH 6.75, room temperature, 2 h): 101.5% | amount (percentage of initial amount) (in Example 4 solution (no EDTA), pH 6.75, room temperature, 4 h): 109.7% | amount (percentage of initial amount) (in Example 4 solution (no EDTA), pH 6.75, room temperature, 6 h): 103.2% | amount (percentage of initial amount) (in Example 5 solution, pH 6.75, room temperature, 0 h): 101.4% | amount (percentage of initial amount) (in Example 5 solution, pH 6.75, room temperature, 1 h): 101.4% | amount (percentage of initial amount) (in Example 5 solution, pH 6.75, room temperature, 2 h): 101.5% | amount (percentage of initial amount) (in Example 5 solution, pH 6.75, room temperature, 4 h): 109.7% | amount (percentage of initial amount) (in Example 5 solution, pH 6.75, room temperature, 6 h): 103.2% | amount (percentage of initial amount) (in Example 6 solution, pH 6.5, room temperature, 0 h): 99.62% | amount (percentage of initial amount) (in Example 6 solution, pH 6.5, room temperature, 1 h): 100.4% | amount (percentage of initial amount) (in Example 6 solution, pH 6.5, room temperature, 2 h): 100.2% | amount (percentage of initial amount) (in Example 6 solution, pH 6.5, room temperature, 4 h): 100.2% | amount (percentage of initial amount) (in Example 7 solution, pH 6.75, room temperature, 0 h): 96.84% | amount (percentage of initial amount) (in Example 7 solution, pH 6.75, room temperature, 1 h): 94.43% | amount (percentage of initial amount) (in Example 7 solution, pH 6.75, room temperature, 2 h): 93.35% | amount (percentage of initial amount) (in Example 7 solution, pH 6.75, room temperature, 4 h): 93.23% | amount (percentage of initial amount) (in Example 7 solution, pH 6.75, room temperature, 6 h): 92.13% | amount (percentage of initial amount) (in Example 7 solution, pH 6.75, room temperature, 8 h): 93.38% | amount (percentage of initial amount) (in Example 12 solution (no aminoglycoside) from freeze-dried powder stored 7 days at 0° C., redissolved, 0 h): 98.5% | amount (percentage of initial amount) (in Example 12 solution (no aminoglycoside) from freeze-dried powder stored 7 days at 0° C., redissolved, 1 h): 98.7% | amount (percentage of initial amount) (in Example 12 solution (no aminoglycoside) from freeze-dried powder stored 7 days at 0° C., redissolved, 2 h): 98.2% | amount (percentage of initial amount) (in Example 12 solution (no aminoglycoside) from freeze-dried powder stored 7 days at 0° C., redissolved, 4 h): 95.6% | amount (percentage of initial amount) (in Example 12 solution (no aminoglycoside) from freeze-dried powder stored 7 days at 0° C., redissolved, 6 h): 94.0% | amount (percentage of initial amount) (in Example 12 solution (no aminoglycoside) from freeze-dried powder stored 7 days at 0° C., redissolved, 8 h): 96.1% | amount (percentage of initial amount) (in Example 14 solution, pH 6.5, room temperature, 0 h): 92.44% | amount (percentage of initial amount) (in Example 14 solution, pH 6.5, room temperature, 1 h): 91.27% | amount (percentage of initial amount) (in Example 14 solution, pH 6.5, room temperature, 2 h): 90.78% | amount (percentage of initial amount) (in Example 14 solution, pH 6.5, room temperature, 4 h): 88.38% | amount (percentage of initial amount) (in Example 14 solution, pH 6.5, room temperature, 6 h): 86.86% | amount (percentage of initial amount) (in Example 15 solution, pH 6.5, room temperature, 0 h): 99.50% | amount (percentage of initial amount) (in Example 15 solution, pH 6.5, room temperature, 1 h): 96.28% | amount (percentage of initial amount) (in Example 15 solution, pH 6.5, room temperature, 2 h): 102.5% | amount (percentage of initial amount) (in Example 15 solution, pH 6.5, room temperature, 4 h): 95.78% | amount (percentage of initial amount) (in Example 15 solution, pH 6.5, room temperature, 6 h): 70.74% | amount (percentage of initial amount) (in Example 17 solution, pH 6.5, room temperature, 0 h): 114.3% | amount (percentage of initial amount) (in Example 17 solution, pH 6.5, room temperature, 1 h): 95.83% | amount (percentage of initial amount) (in Example 17 solution, pH 6.5, room temperature, 2 h): 93.75% | amount (percentage of initial amount) (in Example 17 solution, pH 6.5, room temperature, 4 h): 93.78% | amount (percentage of initial amount) (in Example 17 solution, pH 6.5, room temperature, 6 h): 95.65% | amount (percentage of initial amount) (in Example 17 solution, pH 6.5, room temperature, 8 h): 101.0% | amount (percentage of initial amount) (in Example 18 solution (2.5% fructose), pH 6.5, room temperature, 0 h): 98.07% | amount (percentage of initial amount) (in Example 18 solution (2.5% fructose), pH 6.5, room temperature, 1 h): 98.13% | amount (percentage of initial amount) (in Example 18 solution (2.5% fructose), pH 6.5, room temperature, 2 h): 72.96% | amount (percentage of initial amount) (in Example 18 solution (2.5% fructose), pH 6.5, room temperature, 4 h): 95.16% | amount (percentage of initial amount) (in Example 18 solution (2.5% fructose), pH 6.5, room temperature, 6 h): 99.65% | amount (percentage of initial amount) (in Example 18 solution (2.5% fructose), pH 6.5, room temperature, 8 h): 104.9% | amount (percentage of initial amount) (in Example 19 solution, pH 6.75, room temperature, 0 h): 108.8% | amount (percentage of initial amount) (in Example 19 solution, pH 6.75, room temperature, 1 h): 109.6% | amount (percentage of initial amount) (in Example 19 solution, pH 6.75, room temperature, 2 h): 111.7% | amount (percentage of initial amount) (in Example 19 solution, pH 6.75, room temperature, 4 h): 115.9% | amount (percentage of initial amount) (in Example 19 solution, pH 6.75, room temperature, 6 h): 120.7% | amount (percentage of initial amount) (in Example 19 solution, pH 6.75, room temperature, 8 h): 125.6% | amount (percentage of initial amount) (in Example 20 solution (no EDTA), pH 6.75, room temperature, 0 h): 105.6% | amount (percentage of initial amount) (in Example 20 solution (no EDTA), pH 6.75, room temperature, 1 h): 112.2% | amount (percentage of initial amount) (in Example 20 solution (no EDTA), pH 6.75, room temperature, 2 h): 112.6% | amount (percentage of initial amount) (in Example 20 solution (no EDTA), pH 6.75, room temperature, 4 h): 118.5% | amount (percentage of initial amount) (in Example 20 solution (no EDTA), pH 6.75, room temperature, 6 h): 123.3% | amount (percentage of initial amount) (in Example 20 solution (no EDTA), pH 6.75, room temperature, 8 h): 127.1% | amount (percentage of initial amount) (in Example 22 solution (2.5% fructose), pH 6.0, room temperature, 0 h): 101.4% | amount (percentage of initial amount) (in Example 22 solution (2.5% fructose), pH 6.0, room temperature, 1 h): 107.6% | amount (percentage of initial amount) (in Example 22 solution (2.5% fructose), pH 6.0, room temperature, 2 h): 101.3% | amount (percentage of initial amount) (in Example 22 solution (2.5% fructose), pH 6.0, room temperature, 4 h): 104.4% | amount (percentage of initial amount) (in Example 22 solution (2.5% fructose), pH 6.0, room temperature, 6 h): 104.4% | amount (percentage of initial amount) (in Example 22 solution (2.5% fructose), pH 6.0, room temperature, 8 h): 91.39% | amount (percentage of initial amount) (in Example 24 solution, pH 6.75, room temperature, 0 h): 90.06% | amount (percentage of initial amount) (in Example 24 solution, pH 6.75, room temperature, 1 h): 94.26% | amount (percentage of initial amount) (in Example 24 solution, pH 6.75, room temperature, 2 h): 100.5% | amount (percentage of initial amount) (in Example 24 solution, pH 6.75, room temperature, 4 h): 89.94% | amount (percentage of initial amount) (in Example 24 solution, pH 6.75, room temperature, 6 h): 94.26% | amount (percentage of initial amount) (in Example 24 solution, pH 6.75, room temperature, 8 h): 105.0% | amount (percentage of initial amount) (in Example 25 solution, pH 6.75, room temperature, 0 h): 99.32% | amount (percentage of initial amount) (in Example 25 solution, pH 6.75, room temperature, 1 h): 107.5% | amount (percentage of initial amount) (in Example 25 solution, pH 6.75, room temperature, 2 h): 97.91% | amount (percentage of initial amount) (in Example 25 solution, pH 6.75, room temperature, 4 h): 83.79% | amount (percentage of initial amount) (in Example 25 solution, pH 6.75, room temperature, 6 h): 94.52% | amount (percentage of initial amount) (in Example 25 solution, pH 6.75, room temperature, 8 h): 105.5%
